Key:
Assay type in all cases: biochemical
[1] = target: 238(SER) mutant β-lactamase (Escherichia coli, UniProt P62593, G236S); experiment: Kinetic rate determinations, 238(SER) mutant
Method: (§1) The fluorogenic β-lactamase substrates of the invention were tested for their ability to be hydrolyzed by β-lactamase with release of the fluorescent moiety. The kinetics of hydrolysis were compared to the kinetics of hydrolysis of nitrocefin. The two fluorogenic substrates tested were hydrolyzed using three mutant β-lactamases found in cephem resistant bacteria to compare the rate of hydrolysis with the wildtype enzyme, TEM-1 (Ambler. Phil. Trans. R. Soc. Lond. 289: 321 (1980); Sougakoff et al. Reviews of Infectious Diseases 10: 879 (1988)).
(§2) Nitrocefin kinetics were determined using a Hewlett-Packard 854A spectrophotometer with Chem Station programing, Hewlett-Packard Company Scientific Instruments Division (Palo Alto, Calif.). The data were fit to an unweighted Michaelis-Menten equation using the non-linear data regression package ENZFITTER (Elsevier-BIOSOFT, Cambridge, United Kingdom). The buffer used for all dilutions was 9:1 (50 mM phosphate buffer pH 7.2: DMSO), designated buffer A. The rate of hydrolysis for nitrocefin was determined at a range of 504-514 nm for 300 sec. […] Rates were determined using from 1-0.004 mL of nitrocefin solution diluted to 1 mL total with buffer A. Rate determining experiments were done using 9 different concentrations of the nitrocefin solution and a 1:25 dilution of each enzyme in buffer A.
(§3) Fluorescence kinetics were determined on a Perkin-Elmer LS-5 fluorescence spectrometer Perkin-Elmer Corp. (Norwalk, Conn.) for duration of 300 sec. […] Rates were determined using the following solutions: a) 10.8 mg cephalothin AMC carbamate dissolved in mL of DMSO diluted to 15 mL with buffer A, and b) 11.9 mg cefotaxime AMC carbamate dissolved in 1 mL DMSO diluted to 15 mL with buffer A. For each experiment 0.1 mL of substrate solution was diluted to 3 mL with buffer A. To this was added 0.03 mL of enzyme solution containing (25:1 dilution of the enzyme in buffer A). Fluorescence was read for 300 sec. The rates were determined for both substrates at this concentration for all enzymes tested.

[2] = target: 104(LYS) mutant β-lactamase (Escherichia coli, UniProt P62593, E102K); experiment: Kinetic rate determinations, 104(LYS) mutant
Method: as §1, §2, §3

[3] = target: wildtype enzyme, TEM-1 β-lactamase (Escherichia coli, UniProt P62593); experiment: Kinetic rate determinations, wild type enzyme; details: 300 sec, ranking among enzymes; for rate of cleavage (hydrolysis) of fluorogenic substrate: wild type enzyme, fluorescence 365/440 nm
Method: as §1, §2, §3

[4] = target: 237(SER) mutant β-lactamase (Escherichia coli, UniProt P62593, A235S); experiment: Kinetic rate determinations, 237(SER) mutant
Method: as §1, §2, §3

β-lactamase = experiment: Cleavage of chromogenic substrates, diazonium salt added to reaction mixture; details: releases 3-aminoindole
Text: Cleavage of the β-lactam ring of cefotaxime indole carbamate or cephalothin indole carbamate produces a cascade of electron migration which releases 3-aminoindole.

[5] = system: β-lactamase (wild type and all mutant enzymes); experiment: Kinetic rate determinations, fluorogenic substrates, all enzymes; details: by the wild type and all mutant enzymes
Method: as §1
Fluorescence kinetics were determined on a Perkin-Elmer LS-5 fluorescence spectrometer Perkin-Elmer Corp. (Norwalk, Conn.) for duration of 300 sec. Excitation and emission wavelengths were set to 365 and 440 nm with slits of 10 and 3 nm, respectively. Buffer A was used for all dilutions. […] Rates were determined using the following solutions: a) 10.8 mg cephalothin AMC carbamate dissolved in mL of DMSO diluted to 15 mL with buffer A, and b) 11.9 mg cefotaxime AMC carbamate dissolved in 1 mL DMSO diluted to 15 mL with buffer A. For each experiment 0.1 mL of substrate solution was diluted to 3 mL with buffer A. To this was added 0.03 mL of enzyme solution containing (25:1 dilution of the enzyme in buffer A). Fluorescence was read for 300 sec. The rates were determined for both substrates at this concentration for all enzymes tested.

CO/N=C(\C(=O)N[C@@H]1C(=O)N2C(C(=O)O)=C(COC(=O)Nc3ccc4c(C)cc(=O)oc4c3)CS[C@H]12)c1csc(N)n1 [cefotaxime AMC carbamate, Cefotaxime AMC Carbamate]
increase in the rate of hydrolysis in comparison to wild type β-lactamase ([1]; 238(SER) mutation, fluorescence): greater than 100% | increase in the rate of hydrolysis in comparison to wild type β-lactamase ([2]; 104(LYS) mutation, fluorescence): greater than 100% | rate of cleavage (hydrolysis) of fluorogenic substrate [3]: cleaved most slowly | increase in hydrolysis rate in comparison to wild type β-lactamase ([4]; fluorescence): 60%

O=C(Cc1cccs1)N[C@@H]1C(=O)N2C(C(=O)O)=C(COC(=O)Nc3c[nH]c4ccccc34)CS[C@H]12 [cephalothin indole carbamate, Cephalothin Aminoindole Carbamate]
product after cleavage with β-lactamase and addition of various diazonium salts (β-lactamase): produced a colored precipitate

O=C(Cc1cccs1)N[C@@H]1C(=O)N2C(C(=O)O)=C(/C=C/c3ccc([N+](=O)[O-])cc3[N+](=O)[O-])CS[C@H]12 [nitrocefin, Nitrocefin, reference compound]
rate of hydrolysis for nitrocefin ([1]; 238(SER) mutant, spectrophotometric 504-514 nm, 300 sec, ranking among enzymes): then the 104(LYS) and 238(SER) mutants | rate of hydrolysis for nitrocefin ([2]; 104(LYS) mutant, spectrophotometric 504-514 nm, 300 sec, ranking among enzymes): then the 104(LYS) and 238(SER) mutants | rate of hydrolysis for nitrocefin ([3]; wild type, spectrophotometric 504-514 nm): followed by wild type | rate of hydrolysis for nitrocefin ([4]; spectrophotometric 504-514 nm, 300 sec, ranking among enzymes): fastest

Cc1cc(=O)oc2cc(NC(=O)OCC3=C(C(=O)O)N4C(=O)[C@@H](NC(=O)Cc5cccs5)[C@H]4SC3)ccc12 [cephalothin AMC carbamate, Cephalothin AMC Carbamate]
rate of cleavage (hydrolysis) of fluorogenic substrate ([1]; 238(SER) mutant, fluorescence 365/440 nm, 300 sec, ranking among enzymes): most slowly | rate of cleavage relative to that of the 237(SER) enzyme ([2]; 104(LYS) mutant, fluorescence 365/440 nm, 300 sec): about half that of the 237(SER) enzyme | rate of cleavage (hydrolysis) of fluorogenic substrate [3]: followed closely by the wild type enzyme | rate of cleavage (hydrolysis) of fluorogenic substrate ([4]; fluorescence 365/440 nm, 300 sec, ranking among enzymes): cleaved fastest | rate of cleavage compared between the two fluorogenic substrates [5]: cleaved faster than the cefotaxime AMC carbamate

CO/N=C(\C(=O)N[C@@H]1C(=O)N2C(C(=O)O)=C(COC(=O)Nc3c[nH]c4ccccc34)CS[C@H]12)c1csc(N)n1 [cefotaxime indole carbamate, Cefotaxime Indole Carbamate]
product after cleavage with β-lactamase and addition of various diazonium salts (β-lactamase): produced a colored precipitate
